From US20260256792A1, “TREATMENT OF CHRONIC SPONTANEOUS URTICARIA BY ADMINISTERING (R)-2-[3-[4-AMINO-3-(2-FLUORO-4-PHENOXY-PHENYL)PYRAZOLO[3,4-D]PYRIMIDIN-1-YL]PIPERIDINE-1-CARBONYL]-4-METHYL-4-[4-(OXETAN-3-YL)PIPERAZIN-1-YL]PENT-2-ENENITRILE” (priority 2023, published 2026)

Test system: moderate-to-severe chronic spontaneous urticaria (CSU)
Test: Phase 2 CSU study: itch severity score over 7 days (ISS7)
Format: in vivo, human
Conditions: for Non-responder n (%) (ISS7 reduction of 5 points or more) / OR for rilzabrutinib vs. placebo (ISS7 reduction of 5 points or more) / Responder n (%) (ISS7 reduction of 5 points or more) / Imputed non-responder n (%) (ISS7 reduction of 5 points or more) / RRD (%) for rilzabrutinib vs. placebo (ISS7 reduction of 5 points or more): Omalizumab-Naïve Population; for ISS7 Post-baseline Mean (SD): Omalizumab-Naïve, outlier removed
Source text: The study comprises a 12 week, randomized, double-blind, placebo-controlled, multi-center, dose-ranging efficacy and safety phase, followed by a 40 week open label extension (OLE) phase (see FIG. 1). The study consists of three phases and an optional OLE phase. […] Clinically, CSU is characterized by the spontaneous and recurrent appearance of pruritic hives. The proposed primary endpoints were the UAS7 at Week 12 in EU and EU reference countries and the ISS7 in the US. Regardless of where a participant was from, all assessments were the same. The UAS7 score is a composite score containing both the HSS7 and the ISS7. This allowed a global assessment of the two key components of urticaria: hives and itch. […] The UAS is a validated PRO measure. […] The daily UAS scores range from 0 to 6 point/day. […] Patients were to complete the UAS using the e-diary. […] The following secondary endpoints were to be analyzed using the same approach as for the primary endpoint: • Change from baseline in UAS7 at Week 4 • Change from baseline in UAS7 at Week 12 (for US and US reference countries) • Change from baseline in ISS7 at Week 12 (except US and US reference countries) • Change from baseline in HSS7 at Week 12

## CC(C)(C=C(C#N)C(=O)N1CCC[C@@H](n2nc(-c3ccc(Oc4ccccc4)cc3F)c3c(N)ncnc32)C1)N1CCN(C2COC2)CC1 [rilzabrutinib, (R)-2-[3-[4-amino-3-(2-fluoro-4-phenoxy-phenyl)pyrazolo[3,4-d]pyrimidin-1-yl]piperidine-1-carbonyl]-4-methyl-4-[4-(oxetan-3-yl)piperazin-1-yl]pent-2-enenitrile]
400 mg QPM, Week 10
  Non-responder n (%) (ISS7 reduction of 5 points or more): 14 (37.8) n (%)
  OR for rilzabrutinib vs. placebo (ISS7 reduction of 5 points or more): 1.614
  Responder n (%) (ISS7 reduction of 5 points or more): 23 (62.2) n (%)
  ISS7 Post-baseline Mean (SD): 10.43 (5.30)
400 mg QPM, Week 11
  Imputed non-responder n (%) (ISS7 reduction of 5 points or more): 7 (18.9) n (%)
  Non-responder n (%) (ISS7 reduction of 5 points or more): 17 (45.9) n (%)
  OR for rilzabrutinib vs. placebo (ISS7 reduction of 5 points or more): 0.932
  RRD (%) for rilzabrutinib vs. placebo (ISS7 reduction of 5 points or more): −1.7%
  Responder n (%) (ISS7 reduction of 5 points or more): 20 (54.1) n (%)
  ISS7 Post-baseline Mean (SD): 11.03 (5.55)
400 mg QPM, Week 12
  Imputed non-responder n (%) (ISS7 reduction of 5 points or more): 10 (27.0) n (%)
  Non-responder n (%) (ISS7 reduction of 5 points or more): 21 (56.8) n (%)
  OR for rilzabrutinib vs. placebo (ISS7 reduction of 5 points or more): 0.851
  RRD (%) for rilzabrutinib vs. placebo (ISS7 reduction of 5 points or more): −4.2%
  Responder n (%) (ISS7 reduction of 5 points or more): 16 (43.2) n (%)
400 mg TID, Week 1
  Imputed non-responder n (%) (ISS7 reduction of 5 points or more): 0 n (%)
  Non-responder n (%) (ISS7 reduction of 5 points or more): 13 (37.1) n (%)
  OR for rilzabrutinib vs. placebo (ISS7 reduction of 5 points or more): 5.851
  RRD (%) for rilzabrutinib vs. placebo (ISS7 reduction of 5 points or more): 40.1%
  Responder n (%) (ISS7 reduction of 5 points or more): 22 (62.9) n (%)
400 mg TID, Week 2
  Imputed non-responder n (%) (ISS7 reduction of 5 points or more): 0 n (%)
  Non-responder n (%) (ISS7 reduction of 5 points or more): 12 (34.3) n (%)
  OR for rilzabrutinib vs. placebo (ISS7 reduction of 5 points or more): 4.876
  RRD (%) for rilzabrutinib vs. placebo (ISS7 reduction of 5 points or more): 36.4%
  Responder n (%) (ISS7 reduction of 5 points or more): 23 (65.7) n (%)
400 mg TID, Week 3
  Imputed non-responder n (%) (ISS7 reduction of 5 points or more): 0 n (%)
  Non-responder n (%) (ISS7 reduction of 5 points or more): 12 (34.3) n (%)
  OR for rilzabrutinib vs. placebo (ISS7 reduction of 5 points or more): 3.637
  RRD (%) for rilzabrutinib vs. placebo (ISS7 reduction of 5 points or more): 34.3%
  Responder n (%) (ISS7 reduction of 5 points or more): 23 (65.7) n (%)
400 mg TID, Week 4
  Imputed non-responder n (%) (ISS7 reduction of 5 points or more): 3 (8.6) n (%)
  Non-responder n (%) (ISS7 reduction of 5 points or more): 11 (31.4) n (%)
  OR for rilzabrutinib vs. placebo (ISS7 reduction of 5 points or more): 2.777
  RRD (%) for rilzabrutinib vs. placebo (ISS7 reduction of 5 points or more): 25.1%
  Responder n (%) (ISS7 reduction of 5 points or more): 24 (68.6) n (%)
400 mg TID, Week 5
  Imputed non-responder n (%) (ISS7 reduction of 5 points or more): 2 (5.7) n (%)
  Non-responder n (%) (ISS7 reduction of 5 points or more): 10 (28.6) n (%)
  OR for rilzabrutinib vs. placebo (ISS7 reduction of 5 points or more): 2.535
  RRD (%) for rilzabrutinib vs. placebo (ISS7 reduction of 5 points or more): 22.7%
  Responder n (%) (ISS7 reduction of 5 points or more): 25 (71.4) n (%)
400 mg TID, Week 6
  Imputed non-responder n (%) (ISS7 reduction of 5 points or more): 4 (11.4) n (%)
  Non-responder n (%) (ISS7 reduction of 5 points or more): 15 (42.9) n (%)
  OR for rilzabrutinib vs. placebo (ISS7 reduction of 5 points or more): 1.563
  Responder n (%) (ISS7 reduction of 5 points or more): 20 (57.1) n (%)
400 mg TID, Week 7
  Imputed non-responder n (%) (ISS7 reduction of 5 points or more): 5 (14.3) n (%)
  Non-responder n (%) (ISS7 reduction of 5 points or more): 11 (31.4) n (%)
  OR for rilzabrutinib vs. placebo (ISS7 reduction of 5 points or more): 2.715
  RRD (%) for rilzabrutinib vs. placebo (ISS7 reduction of 5 points or more): 23.5%
  Responder n (%) (ISS7 reduction of 5 points or more): 24 (68.6) n (%)
400 mg TID, Week 8
  Imputed non-responder n (%) (ISS7 reduction of 5 points or more): 7 (20.0) n (%)
  Non-responder n (%) (ISS7 reduction of 5 points or more): 12 (34.3) n (%)
  OR for rilzabrutinib vs. placebo (ISS7 reduction of 5 points or more): 1.891
  RRD (%) for rilzabrutinib vs. placebo (ISS7 reduction of 5 points or more): 16.1%
  Responder n (%) (ISS7 reduction of 5 points or more): 23 (65.7) n (%)
400 mg TID, Week 9
  Imputed non-responder n (%) (ISS7 reduction of 5 points or more): 6 (17.1) n (%)
  Non-responder n (%) (ISS7 reduction of 5 points or more): 11 (31.4) n (%)
  OR for rilzabrutinib vs. placebo (ISS7 reduction of 5 points or more): 2.956
  RRD (%) for rilzabrutinib vs. placebo (ISS7 reduction of 5 points or more): 25.1%
  Responder n (%) (ISS7 reduction of 5 points or more): 24 (68.6) n (%)
400 mg TID, Week 10
  Imputed non-responder n (%) (ISS7 reduction of 5 points or more): 5 (14.3) n (%)
  Non-responder n (%) (ISS7 reduction of 5 points or more): 12 (34.3) n (%)
  OR for rilzabrutinib vs. placebo (ISS7 reduction of 5 points or more): 1.910
  RRD (%) for rilzabrutinib vs. placebo (ISS7 reduction of 5 points or more): 15.5%
  Responder n (%) (ISS7 reduction of 5 points or more): 23 (65.7) n (%)
400 mg TID, Week 11
  Imputed non-responder n (%) (ISS7 reduction of 5 points or more): 4 (11.4) n (%)
  Non-responder n (%) (ISS7 reduction of 5 points or more): 10 (28.6) n (%)
  OR for rilzabrutinib vs. placebo (ISS7 reduction of 5 points or more): 1.951
  RRD (%) for rilzabrutinib vs. placebo (ISS7 reduction of 5 points or more): 15.5%
  Responder n (%) (ISS7 reduction of 5 points or more): 25 (71.4) n (%)
400 mg TID, Week 12
  Imputed non-responder n (%) (ISS7 reduction of 5 points or more): 8 (22.9) n (%)
  Non-responder n (%) (ISS7 reduction of 5 points or more): 15 (42.9) n (%)
  OR for rilzabrutinib vs. placebo (ISS7 reduction of 5 points or more): 1.469
  Responder n (%) (ISS7 reduction of 5 points or more): 20 (57.1) n (%)
400 mg BID, Week 2
  ISS7 Post-baseline Mean (SD): 10.32 (5.64)
400 mg BID, Week 3
  ISS7 Post-baseline Mean (SD): 9.16 (6.09)
400 mg BID, Week 4
  ISS7 Post-baseline Mean (SD): 8.32 (6.02)
400 mg BID, Week 5
  ISS7 Post-baseline Mean (SD): 8.88 (6.81)
400 mg BID, Week 6
  ISS7 Post-baseline Mean (SD): 8.85 (6.40)
400 mg BID, Week 7
  ISS7 Post-baseline Mean (SD): 8.21 (6.16)
400 mg BID, Week 8
  ISS7 Post-baseline Mean (SD): 7.33 (6.55)
400 mg BID, Week 9
  ISS7 Post-baseline Mean (SD): 7.63 (7.11)
400 mg BID, Week 10
  ISS7 Post-baseline Mean (SD): 8.17 (7.29)
400 mg BID, Week 11
  ISS7 Post-baseline Mean (SD): 7.93 (6.94)
400 mg BID, Week 12
  ISS7 Post-baseline Mean (SD): 8.09 (6.95)
400 mg QPM, Week 1
  ISS7 Post-baseline Mean (SD): 13.08 (4.52)
400 mg QPM, Week 3
  ISS7 Post-baseline Mean (SD): 11.60 (4.68)
400 mg QPM, Week 4
  ISS7 Post-baseline Mean (SD): 11.39 (4.79)
400 mg QPM, Week 5
  ISS7 Post-baseline Mean (SD): 11.00 (4.68)
400 mg QPM, Week 6
  ISS7 Post-baseline Mean (SD): 10.27 (5.26)
400 mg QPM, Week 7
  ISS7 Post-baseline Mean (SD): 10.68 (5.34)
400 mg QPM, Week 8
  ISS7 Post-baseline Mean (SD): 10.72 (5.26)
